Assay results taken from PubChem BioAssay AID1963971 (Molecular Pharmacology Branch, DTP, NCI, 2024).

Tested on: 953936-095-R-J2-PDC spheroids with HUVEC/MSC, viability
Test: Anticancer human tumor 953936-095-R-J2-PDC patient-derived cervical squamous cell carcinoma cell line growth inhibition [PI3K]
Conditions: for IC50: curve of first compound; for viability, T/C: stronger effect = lower value
Method in brief: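 Tumor cells grown as multi-cell spheroids with HUVEC endothelial cells and MSC fibroblast-like stroma were treated with targeted agents combined with inavolisib, alpelisib, duvelisib or copanlisib. Doses fell in half-log steps from near clinical Cmax, else from 10 microM. Viability was measured.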

[1] = second compound 0.0316 µM, first compound 0.0316 µM
[2] = second compound 0.0316 µM, first compound 0.1 µM
[3] = second compound 0.0316 µM, first compound 0.316 µM
[4] = second compound 0.0316 µM, first compound 1 µM
[5] = second compound 0.1 µM, first compound 0.0316 µM
[6] = second compound 0.1 µM, first compound 0.1 µM
[7] = second compound 0.1 µM, first compound 0.316 µM
[8] = second compound 0.1 µM, first compound 1 µM
[9] = second compound 0.316 µM, first compound 0.0316 µM
[10] = second compound 0.316 µM, first compound 0.1 µM
[11] = second compound 0.316 µM, first compound 0.316 µM
[12] = second compound 0.316 µM, first compound 1 µM
[13] = second compound 1 µM, first compound 0.0316 µM
[14] = second compound 1 µM, first compound 0.1 µM
[15] = second compound 1 µM, first compound 0.316 µM
[16] = second compound 1 µM, first compound 1 µM
[17] = second compound 3.16 µM, first compound 0.0316 µM
[18] = second compound 3.16 µM, first compound 0.1 µM
[19] = second compound 3.16 µM, first compound 0.316 µM
[20] = second compound 3.16 µM, first compound 1 µM
[21] = second compound 10 µM, first compound 0.0316 µM
[22] = second compound 10 µM, first compound 0.1 µM
[23] = second compound 10 µM, first compound 0.316 µM
[24] = second compound 10 µM, first compound 1 µM
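Note: spheroids exposed to compounds for seven days before read-out.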

## CC(C)NCC(C(=O)N1CCN(c2ncnc3c2C(C)CC3O)CC1)c1ccc(Cl)cc1 (centres undefined) + Cc1nc(NC(=O)N2CCCC2C(N)=O)sc1-c1ccnc(C(C)(C)C(F)(F)F)c1
Second compound 0.0316 µM
  IC50: 0.825 µM
Second compound 0.1 µM
  IC50: 0.709 µM
Second compound 0.316 µM
  IC50: 0.463 µM
Second compound 1 µM
  IC50: < 0.0316 µM
Second compound 3.16 µM
  IC50: < 0.0316 µM
Second compound 10 µM
  IC50: < 0.0316 µM
[1]
  viability, T/C: 88.8%
[2]
  viability, T/C: 89.2%
[3]
  viability, T/C: 75.7%
[4]
  viability, T/C: 44.1%
Second compound 0.0316 µM, first compound 3.16 µM
  viability, T/C: 23.3%
Second compound 0.0316 µM, first compound 10 µM
  viability, T/C: 14.3%
[5]
  viability, T/C: 82.6%
[6]
  viability, T/C: 76.7%
[7]
  viability, T/C: 67.2%
[8]
  viability, T/C: 42.4%
Second compound 0.1 µM, first compound 3.16 µM
  viability, T/C: 22.4%
Second compound 0.1 µM, first compound 10 µM
  viability, T/C: 12.2%
[9]
  viability, T/C: 64.6%
[10]
  viability, T/C: 62.4%
[11]
  viability, T/C: 55.6%
[12]
  viability, T/C: 38.2%
Second compound 0.316 µM, first compound 3.16 µM
  viability, T/C: 17.4%
Second compound 0.316 µM, first compound 10 µM
  viability, T/C: 11.6%
[13]
  viability, T/C: 48.7%
[14]
  viability, T/C: 42.2%
[15]
  viability, T/C: 39.3%
[16]
  viability, T/C: 28.3%
Second compound 1 µM, first compound 3.16 µM
  viability, T/C: 16.2%
Second compound 1 µM, first compound 10 µM
  viability, T/C: 7.67%
[17]
  viability, T/C: 27.6%
[18]
  viability, T/C: 25.6%
[19]
  viability, T/C: 24.5%
[20]
  viability, T/C: 18%
Second compound 3.16 µM, first compound 3.16 µM
  viability, T/C: 11.3%
Second compound 3.16 µM, first compound 10 µM
  viability, T/C: 5.35%
[21]
  viability, T/C: 11.6%
[22]
  viability, T/C: 11.2%
[23]
  viability, T/C: 10.9%
[24]
  viability, T/C: 8.17%
Second compound 10 µM, first compound 3.16 µM
  viability, T/C: 5.5%
Second compound 10 µM, first compound 10 µM
  viability, T/C: 2.61%

## CCN1CCN(Cc2ccc(Nc3ncc(F)c(-c4cc(F)c5nc(C)n(C(C)C)c5c4)n3)nc2)CC1 + Cc1nc(NC(=O)N2CCCC2C(N)=O)sc1-c1ccnc(C(C)(C)C(F)(F)F)c1
Second compound 0.0316 µM
  IC50: > 1 µM
Second compound 0.1 µM
  IC50: > 1 µM
Second compound 0.316 µM
  IC50: > 1 µM
Second compound 1 µM
  IC50: < 0.00316 µM
Second compound 3.16 µM
  IC50: < 0.00316 µM
Second compound 10 µM
  IC50: < 0.00316 µM
Second compound 0.0316 µM, first compound 0.00316 µM
  viability, T/C: 89.8%
Second compound 0.0316 µM, first compound 0.01 µM
  viability, T/C: 93.8%
[1]
  viability, T/C: 88%
[2]
  viability, T/C: 88.6%
[3]
  viability, T/C: 87.1%
[4]
  viability, T/C: 75.5%
Second compound 0.1 µM, first compound 0.00316 µM
  viability, T/C: 84.8%
Second compound 0.1 µM, first compound 0.01 µM
  viability, T/C: 83.4%
[5]
  viability, T/C: 83.4%
[6]
  viability, T/C: 78.3%
[7]
  viability, T/C: 76%
[8]
  viability, T/C: 73.4%
Second compound 0.316 µM, first compound 0.00316 µM
  viability, T/C: 66.3%
Second compound 0.316 µM, first compound 0.01 µM
  viability, T/C: 63.4%
[9]
  viability, T/C: 65.9%
[10]
  viability, T/C: 55.8%
[11]
  viability, T/C: 58.6%
[12]
  viability, T/C: 53%
Second compound 1 µM, first compound 0.00316 µM
  viability, T/C: 47.6%
Second compound 1 µM, first compound 0.01 µM
  viability, T/C: 46%
[13]
  viability, T/C: 43.7%
[14]
  viability, T/C: 41.8%
[15]
  viability, T/C: 38.3%
[16]
  viability, T/C: 36.7%
Second compound 3.16 µM, first compound 0.00316 µM
  viability, T/C: 26.6%
Second compound 3.16 µM, first compound 0.01 µM
  viability, T/C: 26.3%
[17]
  viability, T/C: 24.4%
[18]
  viability, T/C: 23.6%
[19]
  viability, T/C: 23.3%
[20]
  viability, T/C: 22.2%
Second compound 10 µM, first compound 0.00316 µM
  viability, T/C: 10.8%
Second compound 10 µM, first compound 0.01 µM
  viability, T/C: 11.2%
[21]
  viability, T/C: 10.5%
[22]
  viability, T/C: 9.34%
[23]
  viability, T/C: 9.59%
[24]
  viability, T/C: 11.1%
